Measured values: patent US4196288A, “Ergoline derivatives and a process for their preparation” (Societa Farmaceutici Italia S.p.A., priority 1976, dated 1980)
Like-named read-outs stand apart in the source and are kept apart here.

Experiments:
nidation = assay: Nidation inhibition test in rats (anti-prolactin activity; absence of implantation sites); type: in vivo, rat (Sprague-Dowley); conditions: Rattus norvegicus
Description: Prolactin is considered to be the only hypophysial hormone involved in the maintenance of the first part of pregnancy in rats.
For the assessment of the anti-prolactin activity, the nidation inhibition test (M.C. Shelesnyak, Amer. J. Physiol., 180, 47, 1955) in rats was employed. For the ergoline derivatives this test is considered to be correlated with prolactin-inhibiting ability (K. Rezabek et al., J. Pharm. Sci., 64, 1045, 1976).
Adult female rats, of the Sprague-Dowley strain, in proestrus were mated with fertile males and their vaginal smears were examined the next morning. The presence of spermatozoa was considered evidence of impregnation and onset of pregnancy (day 1).
The compounds to be tested were administered orally or subcutaneously to groups of from six to eight rats on day 3. On day 14, the animals were sacrificed and the uterus was examined for the presence of implantation sites. The absence of implantation sites was taken as the criterion of anti-prolactin activity.
Several doses were tested for the ED50 evaluation.
As the reference standard Bromocriptine was used, this being well known both for its anti-nidation (E. Fluckiger and H. R. Wagner, Experientia, 24, 1130, 1968) and its anti-prolactin activity (C. L. Brooks and C. W. Welsch, Proc. Soc. Exp. Bio. Med., 146, 863, 1974).

[1] = Emetic activity in dogs (intravenous); conditions: dog, in vivo, male beagle dogs, i.v., observed for 1 hour after treatment, read-out: ≅ED50, emetic activity in dogs
Description: The emetic activity of some of the compounds was investigated by intravenous administration to male beagle dogs weighing 15-20 kg. […] Five to six animals per dose were employed for the ED50 evaluation.

[2] = sc, rats, s.c., dosed on day 3, uterus examined on day 14, read-out: ≅ED50, nidation inhibition in rats (subcutaneous treatment)
[3] = rats, os (oral), dosed on day 3, uterus examined on day 14, read-out: ≅ED50, nidation inhibition in rats (oral treatment)

`CN1CC(C(=O)COC(=O)c2ccncc2)C[C@@H]2c3cccc4[nH]cc(c34)C[C@H]21` (stereo partly shown) [Compound 991, 8-Isonicotinoyloxyacetyl-6-methylergoline] gave an ED50 (nidation; [2]) of about 2 mg/kg and an ED50 (nidation; [3]) of about 2 mg/kg.

With `CN1CC(C(=O)CN2CCCCC2)C[C@@H]2c3cccc4[nH]cc(c34)C[C@H]21` (stereo partly shown) [Compound 611, 6-Methyl-8-piperidinoacetylergoline] the ED50 (nidation; [2]) was about 1 mg/kg and the ED50 (nidation; [3]) was about 0.5 mg/kg.

`CN1CCN(CC(=O)C2C[C@@H]3c4cccc5[nH]cc(c45)C[C@H]3N(C)C2)CC1` (stereo partly shown) [Compound 1014, 6-Methyl-8-(4'-methylpiperazino)acetylergoline] gave an ED50 (nidation; [2]) of about 1 mg/kg and an ED50 (nidation; [3]) of about 1 mg/kg.

Compound `CN1CC(C(=O)COC(=O)c2cccnc2)C[C@@H]2c3cccc4[nH]cc(c34)C[C@H]21` (stereo partly shown) [Compound 1012, 8-Nicotinoyloxyacetyl-6-methylergoline] has an ED50 (nidation; [2]) of about 1 mg/kg and an ED50 (nidation; [3]) of about 1 mg/kg.

Compound `CN1CC(C(=O)CO)C[C@@H]2c3cccc4[nH]cc(c34)C[C@H]21` (stereo partly shown) [Compound 615, 6-Methyl-8-hydroxyacetylergoline] has an ED50 (nidation; [2]) of about 0.5 mg/kg, an ED50 (nidation; [3]) of about 0.5 mg/kg and a TD50 at 1 h [1] of about 0.025 mg/kg.

With `CCCCCC(=O)OCC(=O)C1C[C@@H]2c3cccc4[nH]cc(c34)C[C@H]2N(C)C1` (stereo partly shown) [Compound 992, 8-Caproyloxyacetyl-6-methylergoline] the ED50 (nidation; [2]) was about 1 mg/kg and the ED50 (nidation; [3]) was about 0.5 mg/kg.

Compound `COc1cccc(OC)c1C(=O)OCC(=O)C1C[C@@H]2c3cccc4[nH]cc(c34)C[C@H]2N(C)C1` (stereo partly shown) [Compound 1013, 8-(2',6'-dimethoxybenzoyloxyacetyl)-6-methylergoline] has an ED50 (nidation; [2]) of about 1 mg/kg and an ED50 (nidation; [3]) of about 0.5 mg/kg.

`CN1CC(C(=O)COC(=O)c2ccccc2)C[C@@H]2c3cccc4[nH]cc(c34)C[C@H]21` (stereo partly shown) [Compound 1000, 8-Benzoyloxyacetyl-6-methylergoline] gave an ED50 (nidation; [2]) of about 1 mg/kg and an ED50 (nidation; [3]) of about 0.5 mg/kg.

Work on `CN1CC(C(=O)COC(=O)C(C)(C)C)C[C@@H]2c3cccc4[nH]cc(c34)C[C@H]21` (stereo partly shown) [Compound 1011, 8-Pivaloyloxyacetyl-6-methylergoline] yielded an ED50 (nidation; [2]) of about 1 mg/kg and an ED50 (nidation; [3]) of about 0.5 mg/kg.

Compound `CC(C)C[C@H]1C(=O)N2CCC[C@H]2[C@]2(O)O[C@](NC(=O)[C@@H]3C=C4c5cccc6[nH]c(Br)c(c56)C[C@H]4N(C)C3)(C(C)C)C(=O)N12` [Bromocriptine, reference compound] has an ED50 (nidation; po, read-out: ≅ED50, nidation inhibition in rats (oral treatment)) of about 8 mg/kg, an ED50 (nidation; sc, read-out: ≅ED50, nidation inhibition in rats (subcutaneous treatment)) of about 1 mg/kg and a TD50 at 1 h [1] of about 0.007 mg/kg.

In the case of `CN1CC(C(=O)COC(=O)c2cncc(Br)c2)C[C@@H]2c3cccc4[nH]cc(c34)C[C@H]21` (stereo partly shown) [Compound 613, 6-Methyl-8-(5'-bromonicotinoyloxyacetyl)ergoline], the ED50 (nidation; [2]) is reported as about 0.5 mg/kg, the ED50 (nidation; [3]) is reported as about 0.5 mg/kg and the TD50 at 1 h [1] is reported as about 0.045 mg/kg.
